These results are taken from publication PMC10745768, “Stereoselective Synthesis and Antiproliferative Activity of Steviol-Based Diterpene 1,3-Aminoalcohol Regioisomers” (Molecules, 2023).

Data set [1] deals with MDA-MB-231 cells. The data set can be described thus: MTT antiproliferative assay, MDA-MB-231. In kind it is cell-based. Particulars: Homo sapiens, 72 h, read-out: Growth inhibition (%) ± SEM; for inhibition at 10 µM: MDA-MB-231, 10 μM; for inhibition at 30 µM: MDA-MB-231, 30 μM. The procedure: (§1) The in vitro anticancer effects of the presented compounds were assessed using the standard MTT [3-(4,5-dimethylthiazol2-yl)-2,5-diphenyltetrazolium bromide] assay on the following human cancer cell lines: cervical (HeLa and SiHa), breast (MCF-7 and MDA-MB-231) and ovarian cancer (A2780). The selectivity of the tested compounds was determined on murine embryonal fibroblast cells (NIH/3T3). The utilised cell lines were purchased from the European Collection of Cell Cultures (Salisbury, UK). The cells were cultivated in Eagle’s minimal essential medium supplemented with 10% fetal bovine serum, 1% non-essential amino acids and 1% antibiotic-antimycotic complex (penicillin, streptomycin, amphotericin B) at 37 °C in a humidified atmosphere containing 5% CO2. All media and supplements were purchased from Lonza Group Ltd. (Basel, Switzerland). The cancer cells were seeded into 96-well plates (5000 cells/well) and incubated overnight, and the test compounds were applied in two different concentrations (10 µM and 30 µM) and incubated for another 72 h under cell-culturing conditions. […] After 72 h, 20 µL of the 5 mg/mL MTT solution was added to each well, and the plates were incubated for 4 h. The medium was removed, and the formazan crystals produced by the mitochondrial activity were dissolved in dimethyl sulfoxide (DMSO) via shaking at 37 °C for 30 min. The absorbances were measured at 545 nm using a microplate reader (SPECTROStar Nano, BMG Labtech, Offenburg, Germany). The reference agent was cisplatin, which is a widely used cytotoxic agent. The IC50 values were calculated using sigmoid curve fitting. Two independent experiments were performed with five parallel wells for each condition. Calculations were performed using the GraphPad Prism 9 software (GraphPad Software Inc., San Diego, CA, USA).
A general note: Formazan colour is commonly taken as a measure of viable cells.

Data set [2] has as its system MCF-7 cells. The data set can be described thus: MTT antiproliferative assay, MCF-7. Particulars: Homo sapiens, MCF7, 72 h, read-out: Growth inhibition (%) ± SEM; for inhibition at 10 µM: MCF-7, 10 μM; for inhibition at 30 µM: MCF-7, 30 μM. In kind it is cell-based. The procedure:
as §1

Data set [3] relates to SiHa cells. The data set can be described thus: MTT antiproliferative assay, SiHa. In kind it is cell-based. Particulars: Homo sapiens, 72 h, read-out: Growth inhibition (%) ± SEM. On the procedure:
as §1

The subject of data set [4] is HeLa cells. The data set can be described thus: MTT antiproliferative assay, HeLa. Type of data set: cell-based. Particulars: Homo sapiens, 72 h, read-out: Growth inhibition (%) ± SEM. The procedure: as §1
For data set [5], the system named is A2780 cells. The data set can be described thus: MTT antiproliferative assay, A2780. In kind it is cell-based. Particulars: Homo sapiens, 72 h, read-out: Growth inhibition (%) ± SEM; for inhibition at 10 µM: A2780, 10 μM; for inhibition at 30 µM: A2780, 30 μM. The procedure: as §1
In data set [6] the test system is NIH/3T3 fibroblast cells. The data set can be described thus: MTT assay on non-malignant fibroblasts (selectivity). Type of data set: cell-based, murine. The following applies: Mus musculus, NIH3T3, 72 h, read-out: Growth inhibition (%) ± SEM; for inhibition at 10 µM: NIH/3T3, 10 μM; for inhibition at 30 µM: NIH/3T3, 30 μM. On the procedure:
as §1

A word on the inhibition: it is the relative decrease from the control value, in per cent. A word on the melting point: it is the temperature of the solid-liquid transition.

`COC(=O)[C@]1(C)CCC[C@@]2(C)[C@@H]3CC[C@@]4(Cn5cc(Cc6ccccc6)nn5)C[C@]3(CC[C@@H]21)C[C@H]4O` [Compound 36, (4R,4aS,6aR,8R,9S,11aR,11bS)-Methyl 9-((4-benzyl-1H-1,2,3-triazol-1-yl)methyl)-8-hydroxy-4,11b-dimethyltetradecahydro-6a,9-methanocyclohepta[a]naphthalene-4-carboxylate]: the melting point lay in the range of 112 to 114 °C. Further, in data set [1], the inhibition at 10 µM is less than 20% and the inhibition at 30 µM came to 91.38 ± 0.65%. Moreover, in data set [2], the inhibition at 10 µM was 45.9 ± 3.4% and the inhibition at 30 µM stood at 91.8 ± 0.74%. Besides, in data set [3], the inhibition at 10 µM is less than 20% and the inhibition at 30 µM came to 79.4 ± 3.17%. In data set [4], the inhibition at 10 µM is less than 20% and the inhibition at 30 µM was found to be 89.32 ± 0.63%. Further, in data set [5], the inhibition at 10 µM is 29.3 ± 1.68% and the inhibition at 30 µM turned out to be 96.31 ± 0.53%. For the same molecule, in data set [6], the inhibition at 10 µM is less than 20% and the inhibition at 30 µM turned out to be 92.91 ± 0.87%.

In the case of `COC(=O)[C@]1(C)CCC[C@@]2(C)[C@@H]3CC[C@@]4(CO)C[C@]3(CC[C@@H]21)C[C@H]4N[C@@H](C)c1cccc2ccccc12` [Compound 14, (4R,4aS,6aR,8R,9R,11aR,11bS)-Methyl 9-(hydroxymethyl)-4,11b-dimethyl-8-(((S)-1-(naphthalen-1-yl)ethyl)amino)tetradecahydro-6a,9-methanocyclohepta[a]naphthalene-4-carboxylate], the melting point lay within 151 to 157 °C. In addition, in data set [1], the inhibition at 10 µM was found to be 53.2 ± 2.44% and the inhibition at 30 µM was determined as 95 ± 1.24%. Besides, in data set [2], the inhibition at 10 µM turned out to be 78.9 ± 4.11% and the inhibition at 30 µM amounted to 97.44 ± 0.53%. Also, in data set [3], the inhibition at 10 µM was 34.1 ± 2.53% and the inhibition at 30 µM came out at 88.88 ± 0.87%. Further, in data set [4], the inhibition at 10 µM came out at 24.6 ± 2.79% and the inhibition at 30 µM is 95.1 ± 1.6%. Besides, in data set [5], the inhibition at 10 µM was 93.3 ± 1.99% and the inhibition at 30 µM is 99.57 ± 0.35%. Besides, in data set [6], the inhibition at 10 µM came to 50.4 ± 2.91% and the inhibition at 30 µM was determined as 97.15 ± 0.6%.

With `COC(=O)[C@]1(C)CCC[C@@]2(C)[C@@H]3CC[C@@]4(CN[C@@H](C)c5ccc6ccccc6c5)C[C@]3(CC[C@@H]21)C[C@H]4O` [Compound 30, (4R,4aS,6aR,8R,9S,11aR,11bS)-Methyl 8-hydroxy-4,11b-dimethyl-9-((((S)-1-(naphthalen-2-yl)ethyl)amino)methyl)tetradecahydro-6a,9-methanocyclohepta[a]naphthalene-4-carboxylate], the melting point fell in the range of 102 to 106 °C. In addition, in data set [1], the inhibition at 10 µM was 50.7 ± 3.21% and the inhibition at 30 µM was determined as 98.7 ± 0.49%. In data set [2], the inhibition at 10 µM was 79.5 ± 1.01% and the inhibition at 30 µM worked out at 95.63 ± 0.55%. In data set [3], the inhibition at 10 µM was less than 20% and the inhibition at 30 µM was 101.4 ± 0.6%. Further, in data set [4], the inhibition at 10 µM is 40.8 ± 0.99% and the inhibition at 30 µM worked out at 94.51 ± 0.19%. In data set [5], the inhibition at 10 µM turned out to be 33.1 ± 1.23% and the inhibition at 30 µM stood at 99.71 ± 0.27%. For the same molecule, in data set [6], the inhibition at 10 µM came out at 21.5 ± 0.48% and the inhibition at 30 µM is 100.7 ± 0.2%.

Molecule `COC(=O)[C@]1(C)CCC[C@@]2(C)[C@@H]3CC[C@@]4(Cn5cc(Cc6ccccc6)nn5)C[C@]3(CC[C@@H]21)CC4=O` [Compound 34, (4R,4aS,6aR,9S,11aR,11bS)-Methyl 9-((4-benzyl-1H-1,2,3-triazol-1-yl)methyl)-4,11b-dimethyl-8-oxotetradecahydro-6a,9-methanocyclohepta[a]naphthalene-4-carboxylate] returned a melting point of 172 to 176 °C. Moreover, in data set [1], the inhibition at 10 µM is less than 20% and the inhibition at 30 µM worked out at 50.1 ± 2.41%. Besides, in data set [2], the inhibition at 10 µM was found to be 37.5 ± 2.1% and the inhibition at 30 µM stood at 81.3 ± 2.02%. Further, in data set [3], the inhibition at 10 µM is less than 20% and the inhibition at 30 µM came to 58.8 ± 2.24%. In data set [4], the inhibition at 10 µM was less than 20% and the inhibition at 30 µM was 75.2 ± 1.26%. Further, in data set [5], the inhibition at 10 µM is 31.8 ± 1.6% and the inhibition at 30 µM amounted to 89.59 ± 0.45%. Further, in data set [6], the inhibition at 10 µM was less than 20% and the inhibition at 30 µM is 72.5 ± 0.96%.

`COC(=O)[C@]1(C)CCC[C@@]2(C)[C@@H]3CC[C@@]4(CO)C[C@]3(CC[C@@H]21)C[C@H]4N[C@H](C)c1cccc2ccccc12` [Compound 13, (4R,4aS,6aR,8R,9R,11aR,11bS)-Methyl 9-(hydroxymethyl)-4,11b-dimethyl-8-(((R)-1-(naphthalen-1-yl)ethyl)amino)tetradecahydro-6a,9-methanocyclohepta[a]naphthalene-4-carboxylate] had a melting point of 180 to 185 °C. In data set [1], the inhibition at 10 µM is less than 20% and the inhibition at 30 µM turned out to be 94.3 ± 1.83%. In data set [2], the inhibition at 10 µM amounted to 56.7 ± 3.88% and the inhibition at 30 µM stood at 96.84 ± 0.55%. Further, in data set [3], the inhibition at 10 µM stood at 24.2 ± 3.46% and the inhibition at 30 µM came out at 87.9 ± 1.62%. Moreover, in data set [4], the inhibition at 10 µM is less than 20% and the inhibition at 30 µM was 92.3 ± 2.7%. In addition, in data set [5], the inhibition at 10 µM was found to be 83.7 ± 1.95% and the inhibition at 30 µM is 99.02 ± 0.39%. Further, in data set [6], the inhibition at 10 µM is less than 20% and the inhibition at 30 µM was 96.88 ± 0.74%.

`CC[C@@H](N[C@@H]1C[C@]23CC[C@H]4[C@@](C)(CCC[C@@]4(C)C(=O)OC)[C@@H]2CC[C@@]1(CO)C3)c1ccccc1` [Compound 12, (4R,4aS,6aR,8R,9R,11aR,11bS)-Methyl 9-(hydroxymethyl)-4,11b-dimethyl-8-(((R)-1-phenylpropyl)amino)tetradecahydro-6a,9-methanocyclohepta[a]naphthalene-4-carboxylate] displayed a melting point of 174 to 176 °C. Besides, in data set [1], the inhibition at 10 µM was less than 20% and the inhibition at 30 µM amounted to 91.6 ± 2.36%. Further, in data set [2], the inhibition at 10 µM was determined as 48.6 ± 0.5% and the inhibition at 30 µM is 92.3 ± 2.89%. Further, in data set [3], the inhibition at 10 µM is less than 20% and the inhibition at 30 µM stood at 82.4 ± 2.09%. Also, in data set [4], the inhibition at 10 µM is less than 20% and the inhibition at 30 µM amounted to 90.8 ± 3.71%. In addition, in data set [5], the inhibition at 10 µM stood at 64.7 ± 1.95% and the inhibition at 30 µM amounted to 98.32 ± 0.23%. In addition, in data set [6], the inhibition at 10 µM was determined as 29.2 ± 1.33% and the inhibition at 30 µM was determined as 95.53 ± 0.49%.

For the molecule `COC(=O)[C@]1(C)CCC[C@@]2(C)[C@@H]3CC[C@@]4(CN[C@H](C)c5cccc6ccccc56)C[C@]3(CC[C@@H]21)C[C@H]4O` [Compound 28, (4R,4aS,6aR,8R,9S,11aR,11bS)-Methyl 8-hydroxy-4,11b-dimethyl-9-((((R)-1-(naphthalen-1-yl)ethyl)amino)methyl)tetradecahydro-6a,9-methanocyclohepta[a]naphthalene-4-carboxylate], the inhibition at 10 µM was 88 ± 0.54% in data set [1]; 90.63 ± 0.54% in data set [2]; 63.4 ± 2.66% in data set [3]; 46.8 ± 1.44% in data set [4]; 60.1 ± 2.24% in data set [5]; less than 20% in data set [6]. The inhibition at 30 µM is 92.9 ± 1.04% in data set [1]; 97.75 ± 0.39% in data set [2]; 86.1 ± 3.79% in data set [3]; 94.66 ± 0.63% in data set [4]; 98.53 ± 0.42% in data set [5]; 94 ± 1.95% in data set [6].

On to `COC(=O)[C@]1(C)CCC[C@@]2(C)[C@@H]3CC[C@@]4(CN[C@@H](C)c5cccc6ccccc56)C[C@]3(CC[C@@H]21)C[C@H]4O` [Compound 27, (4R,4aS,6aR,8R,9S,11aR,11bS)-Methyl 8-hydroxy-4,11b-dimethyl-9-((((S)-1-(naphthalen-1-yl)ethyl)amino)methyl)tetradecahydro-6a,9-methanocyclohepta[a]naphthalene-4-carboxylate], for which the inhibition at 10 µM in data set [1] is 67.2 ± 1.94%; in data set [2], 79.6 ± 2.89%; in data set [3], less than 20%; in data set [4] it was less than 20%; in data set [5] it was 59 ± 1.68%; in data set [6] it was less than 20%. The inhibition at 30 µM was determined as 93.69 ± 0.42% in data set [1]; 97.63 ± 0.31% in data set [2]; 86.9 ± 2.27% in data set [3]; 96.38 ± 0.83% in data set [4]; 98.92 ± 0.22% in data set [5]; 94 ± 1.64% in data set [6].
